The source of these data is PMC8826081, “Three-Carbon Linked Dihydroartemisinin-Isatin Hybrids: Design, Synthesis and Their Antiproliferative Anticancer Activity” (Frontiers in Pharmacology, 2022).

Data set [1] is described as follows: Metabolic stability in human liver microsomes. The format is in vitro ADME. The settings on record: in vitro stability. (Microsomes from liver hold many membrane-bound enzymes, among them those of drug oxidation.)
Data set [2] relates to BEAS-2B normal lung epithelial cell line. Description: MTT cytotoxicity towards normal lung epithelial cells. Conditions: IC50(BEAS-2B)/IC50(A549). The protocol: (§1) 3-(4,5-dimethylthiazol-2-yl)-2,5-diphenyltetrazolium bromide (MTT) assay was used to determined the antiproliferative activity of dihydroartemisinin-isatin hybrids 5a-e and 6a-j with three-carbon linker against A549, multidrug-resistant A549/DOX and A549/DDP lung cancer cell lines as well as cytotoxicity towards normal lung epithelial cell line (BEAS-2B). The inhibitory effects were expressed in terms of half maximal inhibitory concentration (IC50) values.
(§2) The compounds were dissolved in DMSO with concentrations from 1024 to 1 μg/mL. The NIH/3T3 cells were maintained in culture medium at 37 °C under 5% CO2 atmosphere. Cells were seeded in 96-well plates (1×10^4 cell per well) and allowed to recover for 24 h. After 72 h of exposure, cells were harvested and cell viability was assessed by MTT assay. The CC50 values were calculated by Bliss analysis.

Data set [3] in a line: in vitro. The settings on record: human. The protocol:
as §1, §2

A short description of data set [4]: Pharmacokinetic properties in CD-1 mice. Type of data set: in vivo. The settings on record: mouse, plasma. Here is the method: CD-1 mice model was administered with single intravenous […]) dose of 30 mg/kg to test the pharmacokinetic properties of hybrid 6a, e.
CD-1 mice mice (20-25 g) were used in the pharmacokinetic study, and each treatment group had 3 mice which were dosed with […] suspension at 30 mg/kg by single intravenous (iv) administration. Compounds were suspended in 0.5% CMC for iv, and blood was collected from the jugular vein of each mouse at the following time points: 0.25, 0.5, 1, 2, 4, 6, 8 and 24 h after […] administration. Total area under the concentration time curve (AUC), the elimination half-time (t1/2), the peak concentration (Cmax) and the time to reach peak concentration (Tmax) of samples were determined directly from the experimental data using WinNonlin V6.2.1.

The test system of data set [5] is A549/DOX (doxorubicin-resistant A549 cells). Briefly: MTT antiproliferative activity against doxorubicin-resistant A549. The format is cell-based.
From the text: as §1
(§3) A549, A549/DOX, and A549/DDP lung cancer cells (2×10^3) were plated in each well of a 96-well plate and were allowed to adhere and spread for 24 h. The […] were added to a final concentration of 100 µM, and the cells were cultured for 24 h at 37 °C. 3-(4,5-dimethyl-2-thiazolyl)-2,5-diphenyltetrazolium bromide (MTT) solution (10 µL) was added to each well, and the cultures were incubated for an additional 4 h. A further 100 µL of […] was added and incubation continued overnight. The absorbance at 540 nm was determined in each well with a 96-well plate reader. The growth of the treated cells was compared with that of untreated cells.

The subject of data set [6] is A549 lung cancer cells. Briefly: MTT antiproliferative activity against A549. The format is cell-based. The settings on record: Homo sapiens; MTT assay, drug-sensitive A549.
From the text: as §1, §3

Data set [7] relates to A549, A549/DOX and A549/DDP lung cancer cell lines. Briefly: MTT antiproliferative activity, summarised over the three lung cancer cell lines. The format is cell-based.
From the text: as §1, §3

Data set [8] is described as follows: Metabolic stability in mouse liver microsomes. Type of data set: in vitro ADME. The settings on record: in vitro stability.
Data set [9] has as its system A549/DDP (cisplatin-resistant A549 cells). Briefly: MTT antiproliferative activity against cisplatin-resistant A549. The format is cell-based.
From the text: as §1, §3

The mark [10] stands for this setting: single intravenous dose of 30 mg/kg.

Structures are written as SMILES.

With `C[C@@H]1CC[C@H]2[C@@H](C)C(OCCCN3C(=O)C(=NNC(N)=S)c4cc(F)ccc43)O[C@@H]3O[C@@]4(C)CC[C@@H]1[C@]32OO4` (stereo partly drawn) [6e, 2-(5-fluoro-2-oxo-1-(3-(((3R,5aS,6R,8aS,9R,12R,12aR)-3,6,9-trimethyldecahydro-12H-3,12-epoxy[1,2]dioxepino[4,3-i]isochromen-10-yl)oxy)propyl)indolin-3-ylidene)hydrazine-1-carbothioamide], the “Liver microsomes Human” value in data set [1] came out at 51%. Also, in data set [2], the “SI (Selectivity index: IC50(BEAS-2B)/IC50(A549))” value is reported as greater than 16.6. Also, the IC50 in data set [3] was greater than 100 µM; in data set [5] (Homo sapiens, MTT assay, doxorubicin-resistant A549 cells), 8.93 µM; in [6], 5.99 µM; in data set [7] (MTT assay, span of values over the three lung cancer cell lines, read-out: IC50 (range over A549, A549/DOX and A549/DDP)), 5.72 to 9.84 µM; in [9] (Homo sapiens, MTT assay, cisplatin-resistant A549 cells), 6.17 µM. The bioavailability in data set [4] (30 mg/kg, read-out: F (bioavailability)) worked out at 30.8%. In data set [4] (setting [10]), the AUC came out at 1670 ng·h/mL. Further, in data set [4] (setting [10]), the Cmax stood at 10.7 µM. In addition, the clearance in [4] (setting [10]) was 44.8 mL/min/kg. Also, the half-life in data set [4] (setting [10]) is 4.7 h. Moreover, the Tmax in data set [4] (single intravenous dose of 30 mg/kg, read-out: tmax (peak time) (converted)) was 0.2 h. Further, the “RI1 (Resistance index: IC50(A549/DOX)/IC50(A549))” value in data set [5] (IC50(A549/DOX)/IC50(A549)) is 1.49. The “times superior to cisplatin and doxorubicin” value in [7] (against multidrug-resistant A549/DOX and A549/DDP) was 1.5–10.8 times. In [7] (span over RI1 and RI2), the “RI (drug resistance index: IC50(MDR A549)/IC50(A549))” value is 1.03–1.66. For the same molecule, the “Liver microsomes Mouse” value in data set [8] came to 54%. In data set [9] (IC50(A549/DDP)/IC50(A549)), the “RI2 (Resistance index: IC50(A549/DDP)/IC50(A549))” value is 1.03.

Usually bioavailability stands for the share of a dose that reaches the circulation, judged against a reference dose that is usually intravenous. What is called AUC is concentration integrated over time. High values mean more exposure, low ones less exposure. By Cmax is commonly meant the highest concentration seen after dosing. As usually defined, the clearance is a measure of how efficiently the substance is removed, as volume per time. One may read the half-life as the time in which the quantity being followed falls by half. Read a high half-life as slow decline. In general, Tmax refers to the time from dosing to the highest level.
